Source: the Deep4Chem optical property database
Values joined by “and” are separate entries in the source; they are usually repeats but may differ in a detail not shown here. Equal values may be shown once.

Assay: solvent given as SMILES

CC(C)(C)NC(=O)c1ccc(-c2cc3ccccc3s2)c2ccc3c4ccccc4c4ccccc4c3c12
absorption maximum (in ClCCl): 350 nm

CN1c2ccccc2CCc2ccccc21
absorption maximum (in CC#N): 279 nm | absorption maximum (in CO): 278 nm

COc1cc(OC)c2ccc(=O)oc2c1
absorption maximum (in CC(C)O): 324 nm | absorption maximum (in CCO): 324 nm | absorption maximum (in CCOCC): 318 nm | absorption maximum (in CO): 324 nm | absorption maximum (in O): 327 nm

Cc1ccc(-c2nc(-c3cccc(C#N)c3)[nH]c2-c2ccc(C)cc2)cc1
absorption maximum (in CO): 315 nm

CC1(C)C(/C=C/C2=C(Cl)C(=C/C=C3/N(Cc4ccc(F)cc4)c4ccccc4C3(C)C)/CCC2)=[N+](Cc2ccc(F)cc2)c2ccccc21
absorption maximum (in CO): 784 nm

CCCC1=Cc2nc1ccc1[nH]c(cc1CCC)c1nc(ccc3[nH]c2cc3CCC)C(CCC)=C1
absorption maximum (in Cc1ccccc1): 667 nm

N#Cc1nc(N(Cc2ccc(Br)cc2)Cc2ccc(Br)cc2)c(C#N)nc1N(Cc1ccc(Br)cc1)Cc1ccc(Br)cc1
absorption maximum (in ClC(Cl)Cl): 485 nm

CC(C)(C)c1ccc(-c2c(-c3ccc4c5ccccc5n(-c5ccccc5)c4c3)c(C#N)c(-c3ccc4c5ccccc5n(-c5ccccc5)c4c3)c(-c3ccc(C(C)(C)C)cc3)c2-c2ccc(C(C)(C)C)cc2)cc1
absorption maximum (in C1CCOC1): 345 nm

O=C1c2cc(-c3ccccc3)ccc2-c2ccc(-c3ccccc3)cc21
absorption maximum (in C1CCOC1): 337 nm

CCCCn1c2ccc(C#N)cc2c2cc(C#N)ccc21
absorption maximum (in ClCCl): 349 nm

c1ccc(-c2nc(-c3ccccc3)nc(-c3ccc(-n4c5ccccc5c5cc(-n6c7ccccc7c7ccccc76)ccc54)c4c5ccccc5n(-c5ccccc5)c34)n2)cc1
absorption maximum (in Cc1ccccc1): 378.07 nm

CCN(C)c1ccc(C2=C3C(C)=CC(/C=C/c4ccc(OCC(=O)OC)cc4)=[N+]3[B-](F)(F)n3c(C)cc(C)c32)cc1
absorption maximum (in CO): 567 nm

CCOC(=O)c1c(-c2cc3ccccc3oc2=O)nn(-c2ccc(Cl)cc2)c1C(=O)OCC
absorption maximum (in ClCCl): 323 nm

Cc1ccc(C2=Nc3cccc4[n+]3[B-](F)(O2)OC(c2ccc(C)cc2)=N4)cc1
absorption maximum (in ClCCl): 394 nm

O=C1OC(=O)c2cc(Oc3ccccc3)c3c4ccc5c6c(cc(Oc7ccccc7)c(c7ccc1c2c73)c64)C(=O)OC5=O
absorption maximum (in C1CCOC1): 516 nm | absorption maximum (in CN1CCCC1=O): 529 nm | absorption maximum (in CN(C)C=O): 530 nm

CC(=O)c1cc(=O)n(C)c2cc(-c3ccc(N(C)C)cc3)sc12
absorption maximum (in CC#N): 440 nm | absorption maximum (in ClCCl): 448 nm

COC(C)CC1=N/C(=C\c2cccc(N(C)C)c2)C(=O)N1C (stereo not drawn)
absorption maximum (in C1CCOC1): 355 nm | absorption maximum (in CC#N): 355 nm | absorption maximum (in CCCCCC): 354 nm

N#Cc1cc2ccccc2[nH]1
absorption maximum (in C1COCCO1): 281.6 nm | absorption maximum (in CC#N): 279.69 nm

COc1ccc(C2=[N+]3C(=Nc4c(C)cc(-c5ccc(OC)cc5)n4[B-]3(F)F)C(C)=C2)cc1
absorption maximum (in CS(C)=O): 656 nm

C(#Cc1ccccc1C#Cc1ccccc1)c1ccccc1
absorption maximum (in CC#N): 310 nm

CC1=CC(C)=[N+]2C1=C(c1ccc(N(C)C)cc1)c1c(C)cc(C)n1[B-]2(F)F
absorption maximum (in C1CCOC1): 499 nm | absorption maximum (in CC#N): 496 nm | absorption maximum (in CC(=O)C(C)(C)C): 496 nm | absorption maximum (in CC(C)=O): 496 nm | absorption maximum (in CCCCCC): 500 nm | absorption maximum (in CCOC(C)=O): 498 nm | absorption maximum (in CO): 500 nm and 492 nm

COc1c2ccccc2c(-c2ccccc2)c2ccccc12
absorption maximum (in C1COCCO1): 378 nm | absorption maximum (in CCCCCC): 378 nm | absorption maximum (in CCCCCCC): 376 nm | absorption maximum (in CCCCO): 378 nm | absorption maximum (in CCO): 378 nm | absorption maximum (in CN(C)C=O): 378 nm | absorption maximum (in Cc1ccccc1): 378 nm | absorption maximum (in ClC(Cl)(Cl)Cl): 376 nm | absorption maximum (in ClC(Cl)Cl): 378 nm | absorption maximum (in ClCCl): 378 nm | absorption maximum (in OCC(O)CO): 378 nm | absorption maximum (in OCCO): 379 nm

COc1cc2c(cc1OC)C1=C3C(=O)N4C=Cc5cc(OC)c(OC)cc5C4=C3C(=O)N1C=C2
absorption maximum (in CN(C)C=O): 593 nm | absorption maximum (in ClC(Cl)Cl): 593 nm

c1ccc(N(c2ccccc2)c2ccc(-c3ccc4c(c3)C3(c5ccccc5Oc5ccccc53)c3cc(-c5ccc(N(c6ccccc6)c6ccccc6)cc5)ccc3-4)cc2)cc1
absorption maximum (in ClCCl): 372 nm

COc1ccc(-c2cc(-c3ccc(N(C)C)cc3)nc(-c3ccccc3)n2)cc1
absorption maximum (in ClC(Cl)Cl): 365 nm

Cn1cccc1-c1cc(C#N)ccc1C#N
absorption maximum (in C1CCOC1): 370 nm | absorption maximum (in CC#N): 359 nm | absorption maximum (in CCCCCC): 366 nm | absorption maximum (in CCCCOCCCC): 370 nm | absorption maximum (in CCOCC): 364 nm

CC(C)[Si]1(C(C)C)c2cc(C=C(C#N)C#N)ccc2-c2ccc(N(c3ccccc3)c3ccccc3)cc21
absorption maximum (in C1CCCCC1): 484 nm | absorption maximum (in CC#N): 461 nm | absorption maximum (in CCO): 467 nm | absorption maximum (in CCOCC): 467 nm | absorption maximum (in CS(C)=O): 466 nm | absorption maximum (in ClCCl): 481 nm | absorption maximum (in c1ccccc1): 477 nm

Cc1cc(C)n2c1C=C1c3ccccc3C(c3c[nH]c4ccccc34)=[N+]1[B-]2(F)F
absorption maximum (in C1CCOC1): 583 nm | absorption maximum (in CC#N): 575 nm | absorption maximum (in CCCCCC): 580 nm | absorption maximum (in CO): 579 nm | absorption maximum (in Cc1ccccc1): 587 nm | absorption maximum (in ClCCl): 581 nm

CN(C)c1ccc2c(-c3ccc(Br)cc3)c3ccc(=[N+](C)C)cc-3oc2c1
absorption maximum (in CCO): 556 nm

CCCCn1c(-c2ccc(-c3ccc(-c4ccc(-c5n(CCCC)c6cc(C)ccc6[n+]5CCCC)cc4)cc3)cc2)[n+](CCCC)c2ccc(C)cc21
absorption maximum (in O): 304 nm

CCN(CC)c1ccc2cc(/C=C(\C#N)c3nc4ccccc4o3)c(=O)oc2c1
absorption maximum (in C1COCCO1): 497 nm | absorption maximum (in CC#N): 510 nm | absorption maximum (in CCO): 516 nm | absorption maximum (in CCOC(C)=O): 506 nm | absorption maximum (in CN(C)C=O): 529 nm | absorption maximum (in CO): 509 nm | absorption maximum (in CS(C)=O): 519 nm | absorption maximum (in Cc1ccccc1): 500 nm | absorption maximum (in ClCCl): 511 nm

CC(C)(C)c1ccc2c(c1)c1cc(C(C)(C)C)ccc1n2-c1cccs1
absorption maximum (in ClCCl): 340 nm

O=C(O)CCNc1cccc2ccccc12
absorption maximum (in CCO): 330 nm

CN(C)c1ccc(C#Cc2cc(C#Cc3ccc(C(F)(F)F)cc3)c3ccc4c(C#Cc5ccc(C(F)(F)F)cc5)cc(C#Cc5ccc(N(C)C)cc5)c5ccc2c3c54)cc1
absorption maximum (in ClCCl): 506 nm

c1cc2ccc3[nH]c4ccc5cccc6c(c1)c2c3c4c56
absorption maximum (in ClC(Cl)Cl): 425 nm

Cc1cc(=O)oc2cc(-c3cn(Cc4ccccc4)nn3)ccc12
absorption maximum (in CCO): 329 nm

CC1(C)c2ccccc2N(c2ccc(-c3ncccn3)cc2)c2ccccc21
absorption maximum (in Cc1ccccc1): 359 nm

Cc1ccc(/C=N/c2cc(C(C)C)c(O)cc2C)cc1
absorption maximum (in C1CCCCC1): 341 nm | absorption maximum (in C1CCOC1): 348 nm | absorption maximum (in C1COCCO1): 344 nm | absorption maximum (in CC#N): 337 nm | absorption maximum (in CC(C)(C)O): 346 nm | absorption maximum (in CC(C)O): 345 nm | absorption maximum (in CCCCCC): 340 nm | absorption maximum (in CCCCO): 345 nm | absorption maximum (in CCO): 344 nm | absorption maximum (in CCOC(C)=O): 344 nm | absorption maximum (in CN(C)C=O): 347 nm | absorption maximum (in CO): 344 nm | absorption maximum (in CS(C)=O): 348 nm | absorption maximum (in ClC(Cl)Cl): 346 nm | absorption maximum (in ClCCl): 341 nm | absorption maximum (in O): 346 nm | absorption maximum (in OCCO): 344 nm

CC(C)(C)c1ccc(N(c2ccc(C(C)(C)C)cc2)c2ccc3c(N(c4ccc(C(C)(C)C)cc4)c4ccc(C(C)(C)C)cc4)cc4c5cc(N(c6ccc(C(C)(C)C)cc6)c6ccc(C(C)(C)C)cc6)ccc5c(N(c5ccc(C(C)(C)C)cc5)c5ccc(C(C)(C)C)cc5)cc4c3c2)cc1
absorption maximum (in ClCCl): 433 nm

COc1cc(/C=C2\C=C(c3ccccc3)C=C2c2ccccc2)cc(OC)c1
absorption maximum (in C1CCOC1): 436 nm

FC(F)(F)c1ccc2c(c1)Nc1ccccc1S2
absorption maximum (in CC#N): 322 nm | absorption maximum (in CO): 324 nm

COCCOCCOCN1C(=O)c2ccc3c(-c4ccccc4)c4c5ccc6c7c(ccc(c(-c8ccccc8)c4c4ccc(c2c34)C1=O)c75)C(=O)N(COCCOCCOC)C6=O
absorption maximum (in ClCCl): 630 nm

CCCCCCCCC1(CCCCCCCC)c2ccccc2-c2ccc(-c3nnc(-c4cccc(-n5c6ccc(C(C)(C)C)cc6c6cc(C(C)(C)C)ccc65)c4)o3)cc21
absorption maximum (in Cc1ccccc1): 345 nm

CCCCCCC1(CCCCCC)c2cc(-c3ccc(-c4ccc(-c5ccc(-c6ccc7c(c6)C(CCCCCC)(CCCCCC)c6cc(-n8c9ccccc9c9ccccc98)ccc6-7)s5)c5nsnc45)s3)ccc2-c2ccc(-n3c4ccccc4c4ccccc43)cc21
absorption maximum (in ClCCl): 513 nm

CCCCCCCCCCCCOc1cc2c3c(ccc4c5c(SCCCCCCCCCCCC)cc6c7c(ccc(c1c34)c75)C(=O)N(C1CCCCC1)C6=O)C(=O)N(C1CCCCC1)C2=O
absorption maximum (in ClC(Cl)Cl): 568 nm

COC(=O)/C=C/c1sc(-c2ccc(N(C)C)s2)c(-c2cn(C)c3ccccc23)c1O
absorption maximum (in CC#N): 478 nm

C1CCN2CCCn3c2c(c2c3=NCCN=2)C1
absorption maximum (in CC#N): 370 nm | absorption maximum (in CCCCCC): 352 nm

C(=C\c1ncc2ccccc2n1)/c1ccc(N2CCCCC2)cc1
absorption maximum (in ClCCl): 385 nm

COc1ccc2c(c1)c1cc(OC)ccc1n2-c1ccc2c(c1)-c1cc(-n3c4ccc(OC)cc4c4cc(OC)ccc43)ccc1P2(=O)c1ccccc1
absorption maximum (in Cc1ccccc1): 369 nm

CCC1=C(C2=C(C3=C(CC)S(=O)(=O)c4cc(-c5ccc(CO)cc5)ccc43)C(F)(F)C(F)(F)C2(F)F)c2ccc(-c3ccc(CO)cc3)cc2S1(=O)=O
absorption maximum (in C1COCCO1): 340 nm

Brc1ccc(N2c3c(sc4ccccc34)Sc3sc4ccccc4c32)cc1
absorption maximum (in ClCCl): 309 nm

CCOC(=O)c1c(-c2c(Cl)c3ccccc3oc2=O)nn(-c2cccc(C)c2)c1C(=O)OCC
absorption maximum (in ClCCl): 321 nm

O=Cc1ccc(-c2ccc(C3=CCC(c4ccccc4)CC3)s2)s1 (stereo not drawn)
absorption maximum (in C1CCOC1): 385 nm | absorption maximum (in CC#N): 385 nm | absorption maximum (in CCCCCC): 380 nm | absorption maximum (in CCO): 389 nm | absorption maximum (in OCCOCCO): 389 nm | absorption maximum (in c1ccncc1): 393 nm

N#Cc1c2nc3ccccn3c2nc2c1nc1ccccn12
absorption maximum (in C1CCCCC1): 410 nm | absorption maximum (in C1COCCO1): 425 nm | absorption maximum (in CC#N): 430 nm | absorption maximum (in CN(C)C=O): 435 nm | absorption maximum (in ClC(Cl)Cl): 425 nm
